Measurements taken from ChEMBL document CHEMBL1201862, “PubChem BioAssay data set” (2004).
Each block holds one molecule with its values, some of them ahead of it. Calls of active or inactive are those of the source.

Key:
[1] = target: Glucose-6-phosphate 1-dehydrogenase (Homo sapiens, UniProt P11413); test: human G6PD enzyme inhibitors, dose response, selectivity assay for P. falciparum G6PD inhibitor project, biochemical, fluorescence (AID 504792); format: functional
[2] = target: T1, Oxysterols receptor LXR-beta (Homo sapiens, UniProt P55055); format: functional, cell-based;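 further: Cell-based luminescence dose-response assay of agonist activity at LXR, run as a confirmatory counterscreen to a daf-12 agonist screen; HEK293 cells with Gal4-LXR fusion and GAL4-driven luciferase reporter; agonist potency from rising luciferase signal of a Gal4-LXR reporter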
T1 sequence (P55055 whole entry): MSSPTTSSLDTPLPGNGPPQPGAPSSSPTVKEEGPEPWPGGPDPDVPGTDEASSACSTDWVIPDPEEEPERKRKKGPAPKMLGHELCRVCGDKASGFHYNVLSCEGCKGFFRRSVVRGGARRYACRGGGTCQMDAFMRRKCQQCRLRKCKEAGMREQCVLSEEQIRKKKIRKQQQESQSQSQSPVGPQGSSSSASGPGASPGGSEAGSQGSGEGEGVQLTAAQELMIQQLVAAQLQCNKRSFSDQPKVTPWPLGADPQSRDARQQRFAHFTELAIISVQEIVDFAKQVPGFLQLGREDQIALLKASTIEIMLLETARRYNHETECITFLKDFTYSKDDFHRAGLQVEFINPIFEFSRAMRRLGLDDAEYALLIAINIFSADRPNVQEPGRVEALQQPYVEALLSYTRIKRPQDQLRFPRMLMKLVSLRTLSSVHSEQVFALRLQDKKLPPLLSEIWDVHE

cells [3] = test: cells
Kallikrein-7 = Kallikrein-7 (Homo sapiens, UniProt P49862); test: Fluorescence Intensity-based biochemical primary high throughput dose response assay to identify activators of kallikrein-7 (K7) zymogen.
Sequence of Kallikrein-7 (P49862 whole entry): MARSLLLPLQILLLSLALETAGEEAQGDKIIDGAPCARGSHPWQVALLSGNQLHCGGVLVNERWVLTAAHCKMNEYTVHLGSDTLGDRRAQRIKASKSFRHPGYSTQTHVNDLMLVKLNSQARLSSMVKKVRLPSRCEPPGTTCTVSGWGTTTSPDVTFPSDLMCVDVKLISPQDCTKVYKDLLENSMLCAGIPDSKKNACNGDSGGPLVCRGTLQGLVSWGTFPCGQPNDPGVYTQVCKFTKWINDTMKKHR

fMet-Leu-Phe receptor = fMet-Leu-Phe receptor (Homo sapiens, UniProt P21462); test: FPR ligands, dose response (AID 519); format: functional
Sequence of fMet-Leu-Phe receptor (P21462 whole entry): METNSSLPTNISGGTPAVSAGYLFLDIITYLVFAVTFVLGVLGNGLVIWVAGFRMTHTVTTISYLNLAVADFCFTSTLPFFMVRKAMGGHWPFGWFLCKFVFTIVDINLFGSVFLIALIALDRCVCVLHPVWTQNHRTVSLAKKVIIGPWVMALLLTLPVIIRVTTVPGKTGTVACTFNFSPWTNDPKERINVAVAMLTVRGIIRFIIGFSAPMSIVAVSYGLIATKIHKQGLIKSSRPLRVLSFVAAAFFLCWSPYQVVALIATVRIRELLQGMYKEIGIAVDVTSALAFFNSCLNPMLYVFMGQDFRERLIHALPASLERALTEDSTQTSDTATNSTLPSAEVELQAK

Cytochrome P450 2C9 = Cytochrome P450 2C9 (Homo sapiens, UniProt P11712)
Sequence of Cytochrome P450 2C9 (P11712 whole entry): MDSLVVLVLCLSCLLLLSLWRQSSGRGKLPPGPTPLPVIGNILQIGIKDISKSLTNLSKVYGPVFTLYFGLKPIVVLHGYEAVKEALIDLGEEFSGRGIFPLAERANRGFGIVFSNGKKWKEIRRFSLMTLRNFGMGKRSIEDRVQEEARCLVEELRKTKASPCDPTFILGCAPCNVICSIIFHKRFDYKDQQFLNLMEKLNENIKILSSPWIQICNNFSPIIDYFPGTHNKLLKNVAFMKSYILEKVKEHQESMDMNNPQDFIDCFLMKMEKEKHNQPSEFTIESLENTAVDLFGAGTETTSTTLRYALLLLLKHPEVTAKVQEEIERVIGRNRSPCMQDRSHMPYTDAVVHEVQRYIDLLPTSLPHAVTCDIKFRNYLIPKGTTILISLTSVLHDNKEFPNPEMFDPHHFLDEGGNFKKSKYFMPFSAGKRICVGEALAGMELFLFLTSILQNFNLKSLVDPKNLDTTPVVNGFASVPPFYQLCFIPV

[4] = miR-122 activators in hepatoma reporter cells, dose response, cell-based, Huh7 psiCHECK-miR122, Renilla luciferase, cherry-picked (AID 651956); format: functional;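 further: huh7 hepatoma cells stably carrying a psiCHECK-2 miR-122 sensor plasmid; renilla luciferase signal reporting endogenous miR-122 activity after 48 h compound exposure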
Paired box protein Pax-8 = Paired box protein Pax-8 (Homo sapiens, UniProt Q06710); test: inhibitors of PAX8-driven TPO luciferase reporter, dose response, RMG-I cells, cherry-pick (AID 687027); format: functional, cell-based;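 further: luciferase reporter driven by Pax8 target thyroperoxidase promoter measured by SteadyGlo luminescence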
Sequence of Paired box protein Pax-8 (Q06710 whole entry): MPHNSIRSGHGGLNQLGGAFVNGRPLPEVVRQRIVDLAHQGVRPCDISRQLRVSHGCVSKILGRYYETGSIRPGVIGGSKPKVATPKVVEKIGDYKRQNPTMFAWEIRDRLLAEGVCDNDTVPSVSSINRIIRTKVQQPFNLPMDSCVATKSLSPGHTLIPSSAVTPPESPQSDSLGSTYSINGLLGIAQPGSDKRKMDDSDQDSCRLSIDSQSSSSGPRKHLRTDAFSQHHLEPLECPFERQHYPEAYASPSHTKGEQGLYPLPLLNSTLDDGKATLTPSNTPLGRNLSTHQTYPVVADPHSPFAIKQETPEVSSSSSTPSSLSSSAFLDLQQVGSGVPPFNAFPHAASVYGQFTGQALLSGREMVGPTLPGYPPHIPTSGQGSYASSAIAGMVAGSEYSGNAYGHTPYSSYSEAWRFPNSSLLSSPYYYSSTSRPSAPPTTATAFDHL

[5] = inhibitors of PGC1a acetylation in cells, dose response, cell-based, cherry-picked samples (AID 720514); format: functional;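 further: potency may reflect raised or lowered acetylation signal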
[6] = NIH:OVCAR-3 ovarian cancer cell cytotoxicity, dose response, PAX8 inhibitor project, plate reader, dry powder samples (AID 743044); format: functional, cell-based
[7] = HEK293T cytotoxicity, dose response, cytotoxicity control for miR-122 modulator project, cell-based, inhibitor set, cherry-pick, set 2 (AID 720697); format: functional
[8] = P. falciparum Dd2 growth inhibitors, dose response, SYBR Green, dry powder samples, set 9 (AID 1159568); format: functional, cell-based
[9] = P. falciparum Dd2 growth inhibitors, dose response, SYBR Green, cherry-picked samples (AID 1159567); format: functional, cell-based
[10] = HepG2 cell cytotoxicity, dose response, cytotoxicity control, cherry-picked samples (AID 1159577); format: functional, cell-based
[11] = target: T2, RNA-binding protein pos-1 (Caenorhabditis elegans, UniProt G5EF15); test: inhibitors of POS-1/mex-3 RNA binding, dose response, biochemical, fluorescence polarization (AID 1964);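 further: purified POS-1 fused to maltose binding protein made in E. coli; potency of compounds blocking POS-1 binding to fluorescent RNA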
T2 sequence (G5EF15 whole entry): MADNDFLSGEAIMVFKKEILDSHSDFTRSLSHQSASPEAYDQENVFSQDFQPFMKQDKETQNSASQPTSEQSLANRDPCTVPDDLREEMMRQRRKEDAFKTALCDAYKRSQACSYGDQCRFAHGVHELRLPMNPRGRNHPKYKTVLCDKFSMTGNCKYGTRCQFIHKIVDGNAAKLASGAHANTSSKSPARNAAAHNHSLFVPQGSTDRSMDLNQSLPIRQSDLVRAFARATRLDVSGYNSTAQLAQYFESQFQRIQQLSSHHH

[12] = target: T3, Zinc finger protein mex-5 (Caenorhabditis elegans, UniProt Q9XUB2); test: MEX-5/TCR-2 RNA interaction inhibitors, dose response, biochemical, C. elegans, fluorescence polarization (AID 1960)
T3 sequence (Q9XUB2 whole entry): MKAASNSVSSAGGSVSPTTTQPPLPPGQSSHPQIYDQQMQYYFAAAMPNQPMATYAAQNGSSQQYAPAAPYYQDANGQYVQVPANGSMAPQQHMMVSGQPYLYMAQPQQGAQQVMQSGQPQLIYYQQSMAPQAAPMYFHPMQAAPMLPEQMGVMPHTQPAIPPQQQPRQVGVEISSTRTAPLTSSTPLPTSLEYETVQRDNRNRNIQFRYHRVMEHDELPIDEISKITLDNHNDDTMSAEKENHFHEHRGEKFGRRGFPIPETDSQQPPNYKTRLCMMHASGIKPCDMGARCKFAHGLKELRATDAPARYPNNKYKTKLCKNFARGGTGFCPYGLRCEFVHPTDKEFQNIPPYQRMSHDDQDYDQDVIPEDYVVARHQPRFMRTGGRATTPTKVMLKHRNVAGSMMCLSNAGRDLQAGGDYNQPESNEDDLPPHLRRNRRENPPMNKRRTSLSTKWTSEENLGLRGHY

Mu-type opioid receptor = Mu-type opioid receptor (Homo sapiens, UniProt P35372); format: functional, cell-based;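 further: U2OS cells with beta-arrestin recruitment to OPRM1 by beta-gal complementation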
Sequence of Mu-type opioid receptor (P35372 whole entry): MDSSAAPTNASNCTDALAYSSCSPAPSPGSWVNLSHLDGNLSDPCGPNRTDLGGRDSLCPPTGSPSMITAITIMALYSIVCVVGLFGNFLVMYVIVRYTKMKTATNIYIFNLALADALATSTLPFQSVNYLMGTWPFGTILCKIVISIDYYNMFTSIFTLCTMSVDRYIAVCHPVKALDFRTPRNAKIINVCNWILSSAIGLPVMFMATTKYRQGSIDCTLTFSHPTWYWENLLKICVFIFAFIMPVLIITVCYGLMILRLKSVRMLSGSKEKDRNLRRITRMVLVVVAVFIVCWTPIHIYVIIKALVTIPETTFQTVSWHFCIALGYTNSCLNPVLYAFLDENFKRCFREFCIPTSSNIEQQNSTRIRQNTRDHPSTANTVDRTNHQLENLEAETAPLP

[13] = target: 5-hydroxytryptamine receptor 2A (Mus musculus, UniProt P35363); format: functional, cell-based;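 further: CHO-K1 cells with tagged receptor and beta-arrestin; agonist potency measured as compound-induced activation of the receptor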
Sequence of 5-hydroxytryptamine receptor 2A (P35363 whole entry): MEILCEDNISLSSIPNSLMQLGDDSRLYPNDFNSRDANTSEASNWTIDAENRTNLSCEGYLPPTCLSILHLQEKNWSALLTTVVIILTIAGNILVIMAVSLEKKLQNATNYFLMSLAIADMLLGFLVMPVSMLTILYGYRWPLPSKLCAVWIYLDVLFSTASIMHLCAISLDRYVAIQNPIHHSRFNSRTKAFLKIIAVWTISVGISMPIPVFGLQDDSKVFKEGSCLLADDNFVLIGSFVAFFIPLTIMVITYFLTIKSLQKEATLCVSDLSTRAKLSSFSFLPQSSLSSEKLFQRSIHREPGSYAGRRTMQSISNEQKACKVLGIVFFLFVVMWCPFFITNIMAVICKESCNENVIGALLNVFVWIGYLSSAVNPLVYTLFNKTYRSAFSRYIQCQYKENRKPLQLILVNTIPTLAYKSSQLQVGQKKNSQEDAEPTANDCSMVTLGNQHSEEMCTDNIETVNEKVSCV

cells [14] = format: functional, cell-based
[15] = target: T4, Trace amine-associated receptor 1 (Homo sapiens, UniProt Q96RJ0); test: Fluorescence-based cell-based high throughput dose response assay to identify agonists of the human trace amine associated receptor 1 (TAAR1).; format: functional
T4 sequence (Q96RJ0 whole entry): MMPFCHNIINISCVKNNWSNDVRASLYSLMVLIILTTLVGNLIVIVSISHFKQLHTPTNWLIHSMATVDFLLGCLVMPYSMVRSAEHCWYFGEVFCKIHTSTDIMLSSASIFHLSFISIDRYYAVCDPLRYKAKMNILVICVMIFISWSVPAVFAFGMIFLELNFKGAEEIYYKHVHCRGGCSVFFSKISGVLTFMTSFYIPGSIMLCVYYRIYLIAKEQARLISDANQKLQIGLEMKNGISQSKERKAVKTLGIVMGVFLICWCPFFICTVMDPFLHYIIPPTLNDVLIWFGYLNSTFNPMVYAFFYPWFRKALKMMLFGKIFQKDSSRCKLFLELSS

[16] = target: T4, Trace amine-associated receptor 1; test: Counterscreen for agonists of the human trace amine associated receptor 1 (hTAAR1): Fluorescence-based cell-based high throughput dose response assay to identify hTAAR1 agonist that also desensitize TAAR1 receptor response.; format: functional
cells [17] = format: functional, cell-based; remark: listed apart in the source

Sequence of Glucose-6-phosphate 1-dehydrogenase (P11413 whole entry, the tested form may be a part): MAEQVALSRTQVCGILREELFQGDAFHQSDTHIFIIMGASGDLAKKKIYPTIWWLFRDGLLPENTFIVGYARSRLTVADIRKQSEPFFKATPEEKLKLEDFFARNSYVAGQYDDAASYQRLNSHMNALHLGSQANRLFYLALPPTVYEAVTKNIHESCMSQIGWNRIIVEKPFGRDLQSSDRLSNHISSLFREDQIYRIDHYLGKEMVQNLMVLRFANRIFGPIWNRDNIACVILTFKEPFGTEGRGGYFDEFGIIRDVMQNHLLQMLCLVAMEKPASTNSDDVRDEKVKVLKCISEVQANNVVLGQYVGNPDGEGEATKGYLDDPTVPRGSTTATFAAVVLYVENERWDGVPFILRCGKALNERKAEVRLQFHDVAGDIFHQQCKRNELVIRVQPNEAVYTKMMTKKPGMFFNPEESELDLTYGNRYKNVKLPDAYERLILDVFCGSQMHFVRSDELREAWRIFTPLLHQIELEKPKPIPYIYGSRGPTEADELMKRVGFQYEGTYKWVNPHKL

Compound: CN1/C(=C\C(=O)c2cccs2)Sc2ccccc21
IC50 [1]: > 80 µM (inactive)
EC50 [2]: > 67.5 µM (inactive)
EC50 (cells [3]): > 67.5 µM (inactive)

EC50 (Kallikrein-7): 24.8 µM (inactive)
Compound: CN(C(=O)c1cc2c(=O)n3ccccc3nc2s1)C1CCCCC1

Ki (fMet-Leu-Phe receptor): > 66.7 µM (inactive)
AC50 (Cytochrome P450 2C9): 0.447 µM (inconclusive)
Compound: COc1ccc(-c2c(C)oc3c(CN4CCN(CCO)CC4)c(O)ccc3c2=O)cc1OC

Compound: COc1ccc(C#Cc2ccc([C@H]3[C@@H](CO)N4CCCCN(C(=O)Nc5ccccc5)C[C@H]34)cc2)cc1
AC50 [4]: 6.04 µM (active)
AC50 (Paired box protein Pax-8): 12.5 µM (active)
AC50 [5]: 16.4 µM (active)
AC50 [6]: 30.4 µM (active)
AC50 [7]: 7.88 µM (active)

Compound: COc1cccc(S(=O)(=O)N2CCCCN3[C@@H](CO)[C@@H](c4ccc(C#CCC(C)C)cc4)[C@@H]3C2)c1
AC50 (Paired box protein Pax-8): 14.6 µM (active)
AC50 [6]: 43.3 µM (active)
AC50 [8]: 1.48 µM (active)
AC50 [9]: 0.991 µM (active)
AC50 [10]: 11.8 µM (active)

Compound: CN1C[C@H](CO)C=C2c3cccc4[nH]cc(c34)C[C@H]21
EC50 [11]: 20.6 µM (active)
EC50 [12]: 53.2 µM (inconclusive)
EC50 (Mu-type opioid receptor): 92.5 µM (inactive)
EC50 [13]: 0.018 µM (active)
IC50 (cells [14]): > 29.9 µM (inactive)
EC50 [15]: 7.63 µM (active)
IC50 [16]: 4.58 µM (active)
EC50 (cells [17]): > 29.9 µM (inactive)
EC50 (Kallikrein-7): > 7.72 µM (active)
